Measured values: publication PMC11766273, “Design, Synthesis, Anticancer Screening, and Mechanistic Study of Spiro-N-(4-sulfamoyl-phenyl)-1,3,4-thiadiazole-2-carboxamide Derivatives” (International Journal of Molecular Sciences, 2025)

Legend:
renal RXF393 cell line = experiment: Apoptosis assay (Annexin V-FITC/PI); assay type: cell-based, human; conditions: RXF393 treated at IC50
[1] = test system: renal RXF393 cancer cell line; experiment: MTT cell viability assay; conditions: for % viability: rxf393
Description: (§1) The growth percentage was calculated at different drug concentration
levels and at different times.
(§2) and WI 38 cell lines was determined utilizing established MTT test procedures.
(§3) All cell lines utilized were acquired from the Vacsera Cell Culture Library, Tissue
(§4) Culture Unit, Cairo, Egypt, with ATCC provenance.
(§5) concentrations that inhibited 50% of cell growth were tested three times, and the mean
(§6) was computed. Cells were grown in DMEM (Invitrogen/Life Technologies) augmented
(§7) with 10% FBS (Hyclone), 10 mg/ml of insulin (Sigma), and 1% penicillin-streptomycin.
(§8) Seed cells (density 1.2–1.8×10,000 cells/well) in 100 mL of complete growth medium and
(§9) 100 mL of the tested chemical per well in a 96-well plate for 24 h before the MTT testing.
(§10) In a standard experiment, 100 mL of serially diluted sterile testing substances were
(§11) introduced to achieve final concentrations ranging from 0.01 to 100 mM, utilizing
(§12) growth media as a negative control. Following 24 h of culture incubation, the
(§13) supernatants were discarded. The LOX IMVI, HT29, and RXF393 cell lines were
(§14) subjected to trypsinization and rinsed with calcium/magnesium-free PBS (pH 7.2). We
(§15) transferred cultures from the incubator to a laminar flow hood or sterile workspace.
(§16) Each test must incorporate a blank, providing complete media
(§17) balanced salt solution devoid of phenol red and serum. Incorporate reconstituted MTT
(§18) at a volume constituting 10% of the culture medium—re-incubate cultures for 2 to 4 h,
(§19) contingent upon cell type and optimal cell density. Upon completion of the incubation
(§20) period, the cultures from the incubator are extracted, and the resultant formazan
(§21) crystals are dissolved by adding an equivalent volume of MTT Solubilization Solution
Absorbance was spectrophotometrically
(§22) measured at a wavelength of 570 nm. Quantify the background absorbance of multi-
(§23) well plates at 690 nm and deduct this value from the data at 450 nm. Data from all
(§24) experiments were documented, and the viability percentage of cells was computed.

RXF393 cells = experiment: Cell cycle analysis (propidium iodide flow cytometry); conditions: RXF393 treated at IC50
Description: The impact of the target compound on cell cycle progression in the RXF393 cancer cell line was evaluated against doxorubicin as a positive control and untreated RXF393 as a negative control, utilizing a flow cytometry assay.
was assessed utilizing the Propidium Iodide Flow Cytometry Kit to quantify DNA
content following established protocols.
RXF393 cells were treated with the IC50 concentration of the target compound

in vitro = conditions: human, WI 38 normal cells
Description: as §1
levels and at different times.
as §2, §3, §4, §5, §6, §7, §8, §9, §10, §11, §12, §13, §14, §15, §16, §17, §18, §19, §20, §21
Absorbance was spectrophotometrically
as §22, §23, §24

[2] = test system: melanoma LOX IMVI cancer cell line; experiment: MTT cell viability assay; conditions: for % viability: LOXIMVI
Description: as §1
levels and at different times.
as §2, §3, §4, §5, §6, §7, §8, §9, §10, §11, §12, §13, §14, §15, §16, §17, §18, §19, §20, §21
Absorbance was spectrophotometrically
as §22, §23, §24

[3] = test system: colon HT29 cancer cell line; experiment: MTT cell viability assay
Description: as §1
levels and at different times.
as §2, §3, §4, §5, §6, §7, §8, §9, §10, §11, §12, §13, §14, §15, §16, §17, §18, §19, §20, §21
Absorbance was spectrophotometrically
as §22, §23, §24

hCA IX = hCA IX (Homo sapiens, UniProt Q16790); parameters: method as in PMID 35671645, PMID 37577088, PMID 30978604, PMID 37776683; conditions: printed in Figure 1 for reported compounds; cited from earlier work
hCA XII = hCA XII (Homo sapiens, UniProt O43570); parameters: method as in PMID 35671645, PMID 37577088, PMID 30978604, PMID 37776683; conditions: printed in Figure 1 for reported compounds; cited from earlier work
hCA XII, sequence (O43570 25-354): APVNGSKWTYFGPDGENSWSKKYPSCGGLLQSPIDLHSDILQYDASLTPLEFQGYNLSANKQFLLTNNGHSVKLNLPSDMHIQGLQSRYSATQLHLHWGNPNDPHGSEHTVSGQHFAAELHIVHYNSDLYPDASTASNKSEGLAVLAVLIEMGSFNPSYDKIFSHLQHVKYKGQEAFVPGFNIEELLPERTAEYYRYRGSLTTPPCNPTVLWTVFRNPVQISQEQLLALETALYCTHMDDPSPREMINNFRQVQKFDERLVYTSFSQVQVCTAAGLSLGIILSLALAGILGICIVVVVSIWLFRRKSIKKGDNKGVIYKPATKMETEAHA

## COc1cccc2c1C(=O)c1c(O)c3c(c(O)c1C2=O)C[C@@](O)(C(=O)CO)C[C@@H]3O[C@H]1C[C@H](N)[C@H](O)[C@H](C)O1 [Doxorubicin, doxorubicin, reference compound]
Renal RXF393 cell line; DMSO control 0.18
  Apoptosis Late: 17.36%
Renal RXF393 cell line; DMSO control 0.42
  Apoptosis Early: 12.64%
Renal RXF393 cell line; DMSO control 1.16
  Necrosis: 9.02%
[1]; RXF393, MTT
  IC50: 13.5 ± 0.82 µM
[1]; RXF 393, Table S2
  Cytotoxicity IC50 SD: 13.54 ± 0.82 µg/mL
[1]; 0.4ug, MTT
  % viability: 78.52%
[1]; 1.6ug, MTT
  % viability: 69.673%
[1]; 6.25ug, MTT
  % viability: 54.451%
[1]; 25ug, MTT
  % viability: 43.883%
[1]; 100ug, MTT
  % viability: 34.98%
RXF393 cells; DMSO control 19.51
  DNA Content %G2/M: 11.01%
RXF393 cells; DMSO control 28.54
  DNA Content %S: 16.81%
RXF393 cells; DMSO control 51.95
  DNA Content %G0-G1: 72.18%
In vitro
  IC50 at 24 h: 18.1 ± 0.59 µM
  viability at 24 h, 0.4 µM: 74.5%
  viability at 24 h, 1.6 µM: 63.2%
  viability at 24 h, 6.3 µM: 52.4%
  viability at 24 h, 25 µM: 46.6%
  viability at 24 h, 100 µM: 38.4%
[2]; LOX IMVI
  IC50: 6.08 ± 0.32 µM
[2]; 0.4uM
  % viability: 69.98%
[2]; 1.6uM
  % viability: 58.61%
[2]; 6.3uM
  % viability: 49.41%
[2]; 25uM
  % viability: 41.5165%
[2]; 100uM
  % viability: 29.521%
[3]; HT29
  IC50: 13.5 ± 0.71 µM
[3]; HT-29, 0.4uM
  % viability: 79.36%
[3]; HT-29, 1.6uM
  % viability: 68.43%
[3]; HT-29, 6.3uM
  % viability: 57.377%
[3]; HT-29, 25uM
  % viability: 45.5981%
[3]; HT-29, 100uM
  % viability: 31.937%

## NS(=O)(=O)c1ccc(NC(=O)Nc2ncc(-c3ccc(F)cc3)s2)cc1 [Compound I]
hCA IX
  Ki: 0.0136 µM
hCA XII
  Ki: 0.0276 µM
